Laboratory results: the kinase profiling compilation of Christmann-Franck et al. (2016)

What was measured:
Test in all cases: radiometric filter-binding kinase assay
[1] = system: AKT1 (human), P31749 [S473D]
[2] = system: AKT2 (human), P31751 [S474D]
CSNK2A1 (human) = CSNK2A1 (human) (UniProt P68400)
DYRK3 (human) = DYRK3 (human) (UniProt O43781)
EPHA2 (human) = EPHA2 (human) (UniProt P29317)
EPHB1 (human) = EPHB1 (human) (UniProt P54762)
FGFR1 (human) = FGFR1 (human) (UniProt P11362)
GSK3B (human) = GSK3B (human) (UniProt P49841)
INSR (human) = INSR (human) (UniProt P06213)
INSRR (human) = INSRR (human) (UniProt P14616)
IRAK4 (human) = IRAK4 (human) (UniProt Q9NWZ3)
LCK (mouse) = details: accession and sequence are those of the human protein
MAP2K1 (human) = MAP2K1 (human) (UniProt Q02750)
MAP2K6 (human) = MAP2K6 (human) (UniProt P52564)
MAP3K9 (human) = MAP3K9 (human) (UniProt P80192)
MAPK10 (human) = MAPK10 (human) (UniProt P53779)
MAPK11 (human) = MAPK11 (human) (UniProt Q15759)
MAPK13 (human) = MAPK13 (human) (UniProt O15264)
MARK1 (human) = MARK1 (human) (UniProt Q9P0L2)
MARK2 (human) = MARK2 (human) (UniProt Q7KZI7)
MKNK1 (human) = MKNK1 (human) (UniProt Q9BUB5)
MYLK (human) = MYLK (human) (UniProt Q15746)
NEK2 (human) = NEK2 (human) (UniProt P51955)
NEK6 (human) = NEK6 (human) (UniProt Q9HC98)
[3] = system: PAK2 (human), Q13177 [T402E]
PHKG1 (human) = PHKG1 (human) (UniProt Q16816)
PIM2 (human) = PIM2 (human) (UniProt Q9P1W9)
PIM3 (human) = PIM3 (human) (UniProt Q86V86)
PKN2 (human) = PKN2 (human) (UniProt Q16513)
ROCK2 (rat) = details: accession and sequence are those of the human protein
[4] = system: RPS6KB1 (human), P23443 [T412E]
SRPK1 (human) = SRPK1 (human) (UniProt Q96SB4)
[5] = target: STK11 CAB39 STRADA (human) (UniProt Q9Y376+Q7RTN6+Q15831)
SYK (human) = SYK (human) (UniProt P43405)
TBK1 (human) = TBK1 (human) (UniProt Q9UHD2)
TTK (human) = TTK (human) (UniProt P33981)

Sequence of MARK2 (human) (Q7KZI7 whole entry, looked up): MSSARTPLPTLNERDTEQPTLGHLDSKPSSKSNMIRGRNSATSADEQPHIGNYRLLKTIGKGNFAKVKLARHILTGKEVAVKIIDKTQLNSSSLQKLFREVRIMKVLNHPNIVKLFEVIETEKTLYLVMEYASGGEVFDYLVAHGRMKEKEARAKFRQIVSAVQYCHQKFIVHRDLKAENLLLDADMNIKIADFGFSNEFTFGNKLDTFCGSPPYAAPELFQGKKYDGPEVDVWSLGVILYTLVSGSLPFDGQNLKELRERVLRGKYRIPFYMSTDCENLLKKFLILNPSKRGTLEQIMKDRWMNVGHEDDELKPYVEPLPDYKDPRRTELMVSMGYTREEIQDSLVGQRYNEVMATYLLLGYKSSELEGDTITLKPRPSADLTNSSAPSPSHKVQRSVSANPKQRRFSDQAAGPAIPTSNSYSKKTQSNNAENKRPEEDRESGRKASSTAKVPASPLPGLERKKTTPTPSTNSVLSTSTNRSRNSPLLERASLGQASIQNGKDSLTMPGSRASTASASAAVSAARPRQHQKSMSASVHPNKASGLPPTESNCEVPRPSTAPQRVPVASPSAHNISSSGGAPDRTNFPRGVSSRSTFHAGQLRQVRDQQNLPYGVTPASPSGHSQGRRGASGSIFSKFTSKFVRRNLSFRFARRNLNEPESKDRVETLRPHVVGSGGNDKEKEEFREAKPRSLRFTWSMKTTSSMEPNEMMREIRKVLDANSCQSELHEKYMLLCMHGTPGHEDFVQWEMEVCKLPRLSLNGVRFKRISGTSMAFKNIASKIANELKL
Sequence of DYRK3 (human) (O43781 whole entry, looked up): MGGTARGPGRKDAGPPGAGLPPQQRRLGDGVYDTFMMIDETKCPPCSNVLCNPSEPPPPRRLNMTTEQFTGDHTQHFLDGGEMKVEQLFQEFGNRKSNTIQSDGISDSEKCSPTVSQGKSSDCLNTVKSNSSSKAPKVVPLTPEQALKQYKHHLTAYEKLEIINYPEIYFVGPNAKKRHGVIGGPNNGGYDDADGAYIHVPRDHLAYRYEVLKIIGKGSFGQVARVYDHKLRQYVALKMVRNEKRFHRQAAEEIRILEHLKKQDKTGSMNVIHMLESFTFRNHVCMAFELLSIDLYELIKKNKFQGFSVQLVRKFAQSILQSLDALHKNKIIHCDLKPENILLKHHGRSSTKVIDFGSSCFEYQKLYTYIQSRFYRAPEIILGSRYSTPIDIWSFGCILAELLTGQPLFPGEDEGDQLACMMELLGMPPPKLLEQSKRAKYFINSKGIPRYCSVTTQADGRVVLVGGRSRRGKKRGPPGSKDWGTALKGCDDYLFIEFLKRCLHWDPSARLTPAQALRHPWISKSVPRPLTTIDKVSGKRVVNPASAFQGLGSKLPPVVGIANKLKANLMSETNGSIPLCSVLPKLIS
Sequence of AKT1 (human), P31749 [S473D] (P31749 whole entry S473D, looked up): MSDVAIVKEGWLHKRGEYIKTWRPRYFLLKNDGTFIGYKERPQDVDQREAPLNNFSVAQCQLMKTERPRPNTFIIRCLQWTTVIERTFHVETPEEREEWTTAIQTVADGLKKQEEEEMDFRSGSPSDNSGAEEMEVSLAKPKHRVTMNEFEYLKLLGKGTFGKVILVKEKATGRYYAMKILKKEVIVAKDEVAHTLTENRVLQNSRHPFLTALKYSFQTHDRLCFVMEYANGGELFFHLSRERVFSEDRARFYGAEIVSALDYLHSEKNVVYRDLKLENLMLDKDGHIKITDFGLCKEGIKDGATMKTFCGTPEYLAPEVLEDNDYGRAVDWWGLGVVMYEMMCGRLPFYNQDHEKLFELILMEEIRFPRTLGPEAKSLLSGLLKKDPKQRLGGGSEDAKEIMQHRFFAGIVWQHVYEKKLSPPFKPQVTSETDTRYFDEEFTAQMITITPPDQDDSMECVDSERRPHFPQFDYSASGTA
Sequence of GSK3B (human) (P49841 whole entry, looked up): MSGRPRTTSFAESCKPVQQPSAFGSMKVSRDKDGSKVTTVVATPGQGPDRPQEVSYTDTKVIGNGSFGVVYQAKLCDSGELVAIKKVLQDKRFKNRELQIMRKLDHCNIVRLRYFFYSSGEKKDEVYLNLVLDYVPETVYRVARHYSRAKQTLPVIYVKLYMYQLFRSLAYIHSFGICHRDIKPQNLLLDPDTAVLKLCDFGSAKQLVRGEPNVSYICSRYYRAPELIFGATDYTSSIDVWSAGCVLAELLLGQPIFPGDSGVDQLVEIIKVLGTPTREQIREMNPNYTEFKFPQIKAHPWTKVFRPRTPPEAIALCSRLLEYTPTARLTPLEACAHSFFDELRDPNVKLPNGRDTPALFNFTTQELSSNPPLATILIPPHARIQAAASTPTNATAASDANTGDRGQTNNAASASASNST
Sequence of NEK6 (human) (Q9HC98 whole entry, looked up): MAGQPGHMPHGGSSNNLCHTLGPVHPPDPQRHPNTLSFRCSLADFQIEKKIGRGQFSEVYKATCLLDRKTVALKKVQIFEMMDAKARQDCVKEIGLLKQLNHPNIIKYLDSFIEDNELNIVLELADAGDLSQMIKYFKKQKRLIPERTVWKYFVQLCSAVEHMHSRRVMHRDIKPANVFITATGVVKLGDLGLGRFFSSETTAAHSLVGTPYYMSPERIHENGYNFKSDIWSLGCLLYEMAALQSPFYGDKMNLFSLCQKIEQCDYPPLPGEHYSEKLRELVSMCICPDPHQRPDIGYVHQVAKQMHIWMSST
Sequence of MYLK (human) (Q15746 whole entry, looked up): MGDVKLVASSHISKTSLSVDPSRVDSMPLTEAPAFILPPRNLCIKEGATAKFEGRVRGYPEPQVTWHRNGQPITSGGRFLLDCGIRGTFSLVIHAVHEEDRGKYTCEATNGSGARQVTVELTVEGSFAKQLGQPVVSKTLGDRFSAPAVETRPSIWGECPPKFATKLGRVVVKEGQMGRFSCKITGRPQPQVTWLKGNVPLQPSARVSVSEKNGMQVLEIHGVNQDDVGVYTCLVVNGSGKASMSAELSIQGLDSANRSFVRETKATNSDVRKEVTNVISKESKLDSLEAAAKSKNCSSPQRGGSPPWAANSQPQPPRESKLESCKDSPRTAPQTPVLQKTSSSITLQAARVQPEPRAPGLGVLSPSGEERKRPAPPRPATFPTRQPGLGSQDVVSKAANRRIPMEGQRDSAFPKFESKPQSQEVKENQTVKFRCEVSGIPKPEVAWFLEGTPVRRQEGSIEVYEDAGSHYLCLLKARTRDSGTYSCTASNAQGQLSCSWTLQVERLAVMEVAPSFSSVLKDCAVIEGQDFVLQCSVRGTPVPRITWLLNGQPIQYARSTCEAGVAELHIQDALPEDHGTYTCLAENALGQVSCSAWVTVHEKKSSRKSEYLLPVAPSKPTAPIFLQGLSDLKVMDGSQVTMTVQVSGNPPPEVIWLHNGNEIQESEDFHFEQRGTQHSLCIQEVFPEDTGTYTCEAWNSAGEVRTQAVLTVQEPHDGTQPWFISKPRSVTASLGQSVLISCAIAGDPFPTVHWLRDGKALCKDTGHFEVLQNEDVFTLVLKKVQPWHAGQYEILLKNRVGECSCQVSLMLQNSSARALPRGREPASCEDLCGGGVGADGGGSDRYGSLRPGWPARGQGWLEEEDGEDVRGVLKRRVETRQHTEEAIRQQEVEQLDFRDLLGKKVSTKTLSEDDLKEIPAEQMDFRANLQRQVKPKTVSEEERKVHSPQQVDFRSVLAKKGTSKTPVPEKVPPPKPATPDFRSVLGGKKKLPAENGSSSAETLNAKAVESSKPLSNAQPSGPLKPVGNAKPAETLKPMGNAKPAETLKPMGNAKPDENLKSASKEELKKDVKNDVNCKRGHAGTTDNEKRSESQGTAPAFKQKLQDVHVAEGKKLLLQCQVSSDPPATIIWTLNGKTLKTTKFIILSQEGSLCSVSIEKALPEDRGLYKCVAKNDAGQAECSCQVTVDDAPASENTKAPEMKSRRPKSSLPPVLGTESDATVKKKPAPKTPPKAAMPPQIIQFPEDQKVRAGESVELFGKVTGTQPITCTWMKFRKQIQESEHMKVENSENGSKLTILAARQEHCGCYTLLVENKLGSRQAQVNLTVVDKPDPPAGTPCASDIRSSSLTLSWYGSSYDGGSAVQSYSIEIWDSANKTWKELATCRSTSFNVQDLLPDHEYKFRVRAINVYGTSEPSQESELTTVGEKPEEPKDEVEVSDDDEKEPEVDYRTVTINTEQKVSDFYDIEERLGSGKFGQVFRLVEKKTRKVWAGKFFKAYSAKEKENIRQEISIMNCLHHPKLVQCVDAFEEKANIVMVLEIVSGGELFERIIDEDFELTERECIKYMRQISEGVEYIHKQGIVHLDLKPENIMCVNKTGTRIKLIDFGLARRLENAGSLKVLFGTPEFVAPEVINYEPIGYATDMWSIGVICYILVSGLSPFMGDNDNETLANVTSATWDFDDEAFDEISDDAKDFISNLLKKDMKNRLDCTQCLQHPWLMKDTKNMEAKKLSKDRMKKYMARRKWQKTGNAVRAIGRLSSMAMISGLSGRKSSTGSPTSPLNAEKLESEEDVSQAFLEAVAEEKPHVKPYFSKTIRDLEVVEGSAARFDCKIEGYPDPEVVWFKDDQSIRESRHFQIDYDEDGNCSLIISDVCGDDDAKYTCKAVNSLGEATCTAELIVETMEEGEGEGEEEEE

Nc1cccc2c1CN(C1CCC(=O)NC1=O)C2=O (stereo not drawn) showed a residual activity ([1]; compound 1.0 µM) of 88%, a residual activity ([1]; compound 10.0 µM) of 91% and a residual activity ([2]; compound 1.0 µM) of 85%. The residual activity ([2]; compound 10.0 µM) was 94%, the residual activity (CSNK2A1 (human); compound 1.0 µM) was 106% and the residual activity (CSNK2A1 (human); compound 10.0 µM) was 93%. It also gave a residual activity (DYRK3 (human); compound 1.0 µM) of 104%, a residual activity (DYRK3 (human); compound 10.0 µM) of 99% and a residual activity (EPHA2 (human); compound 10.0 µM) of 96%. It also gave a residual activity (EPHB1 (human); compound 1.0 µM) of 115%, a residual activity (EPHB1 (human); compound 10.0 µM) of 126% and a residual activity (FGFR1 (human); compound 10.0 µM) of 109%. For the same compound, the residual activity (GSK3B (human); compound 10.0 µM) was 92%, the residual activity (INSR (human); compound 10.0 µM) was 107% and the residual activity (INSRR (human); compound 1.0 µM) was 102%. The residual activity (INSRR (human); compound 10.0 µM) was 109%, the residual activity (IRAK4 (human); compound 1.0 µM) was 107% and the residual activity (IRAK4 (human); compound 10.0 µM) was 110%. The residual activity (LCK (mouse); compound 1.0 µM) was 100%, the residual activity (LCK (mouse); compound 10.0 µM) was 99% and the residual activity (MAP2K1 (human); compound 1.0 µM) was 90%. It also gave a residual activity (MAP2K1 (human); compound 10.0 µM) of 92%, a residual activity (MAP2K6 (human); compound 1.0 µM) of 93% and a residual activity (MAP2K6 (human); compound 10.0 µM) of 100%. It also gave a residual activity (MAP3K9 (human); compound 1.0 µM) of 99%, a residual activity (MAP3K9 (human); compound 10.0 µM) of 99% and a residual activity (MAPK10 (human); compound 1.0 µM) of 90%. The residual activity (MAPK10 (human); compound 10.0 µM) was 95%, the residual activity (MAPK11 (human); compound 1.0 µM) was 96% and the residual activity (MAPK11 (human); compound 10.0 µM) was 106%. It also gave a residual activity (MAPK13 (human); compound 1.0 µM) of 109%, a residual activity (MAPK13 (human); compound 10.0 µM) of 123% and a residual activity (MARK1 (human); compound 1.0 µM) of 98%. It also gave a residual activity (MARK1 (human); compound 10.0 µM) of 100%, a residual activity (MARK2 (human); compound 1.0 µM) of 99% and a residual activity (MARK2 (human); compound 10.0 µM) of 104%. The residual activity (MKNK1 (human); compound 1.0 µM) was 116%, the residual activity (MKNK1 (human); compound 10.0 µM) was 111% and the residual activity (MYLK (human); compound 1.0 µM) was 94%. It also gave a residual activity (MYLK (human); compound 10.0 µM) of 94%, a residual activity (NEK2 (human); compound 1.0 µM) of 97% and a residual activity (NEK2 (human); compound 10.0 µM) of 96%. For the same compound, the residual activity (NEK6 (human); compound 1.0 µM) was 105%, the residual activity (NEK6 (human); compound 10.0 µM) was 96% and the residual activity ([3]; compound 1.0 µM) was 101%. The residual activity ([3]; compound 10.0 µM) was 103%, the residual activity (PHKG1 (human); compound 1.0 µM) was 101% and the residual activity (PHKG1 (human); compound 10.0 µM) was 103%. For the same compound, the residual activity (PIM2 (human); compound 1.0 µM) was 98%, the residual activity (PIM3 (human); compound 1.0 µM) was 101% and the residual activity (PIM3 (human); compound 10.0 µM) was 103%. The residual activity (PKN2 (human); compound 1.0 µM) was 93%, the residual activity (PKN2 (human); compound 10.0 µM) was 88% and the residual activity (ROCK2 (rat); compound 1.0 µM) was 90%. The residual activity (ROCK2 (rat); compound 10.0 µM) was 88%, the residual activity ([4]; compound 1.0 µM) was 94% and the residual activity ([4]; compound 10.0 µM) was 93%. It also gave a residual activity (SRPK1 (human); compound 1.0 µM) of 104%, a residual activity (SRPK1 (human); compound 10.0 µM) of 104% and a residual activity ([5]; compound 1.0 µM) of 116%. The residual activity ([5]; compound 10.0 µM) was 112%, the residual activity (SYK (human); compound 10.0 µM) was 114% and the residual activity (TBK1 (human); compound 1.0 µM) was 95%. For the same compound, the residual activity (TBK1 (human); compound 10.0 µM) was 102%, the residual activity (TTK (human); compound 1.0 µM) was 104% and the residual activity (TTK (human); compound 10.0 µM) was 118%.

FC(F)(F)c1ccc(-c2ccc(Oc3cncc4sc(-c5nn[nH]n5)cc34)cc2)cc1 was tested, and the residual activity ([1]; compound 1.0 µM) was 99%, the residual activity ([1]; compound 10.0 µM) was 73% and the residual activity ([2]; compound 1.0 µM) was 106%. For the same compound, the residual activity ([2]; compound 10.0 µM) was 98%, the residual activity (CSNK2A1 (human); compound 1.0 µM) was 20% and the residual activity (CSNK2A1 (human); compound 10.0 µM) was 4%. For the same compound, the residual activity (DYRK3 (human); compound 1.0 µM) was 18%, the residual activity (DYRK3 (human); compound 10.0 µM) was 3% and the residual activity (EPHA2 (human); compound 1.0 µM) was 126%. The residual activity (EPHA2 (human); compound 10.0 µM) was 94%, the residual activity (EPHB1 (human); compound 1.0 µM) was 108% and the residual activity (EPHB1 (human); compound 10.0 µM) was 100%. It also gave a residual activity (FGFR1 (human); compound 1.0 µM) of 102%, a residual activity (FGFR1 (human); compound 10.0 µM) of 76% and a residual activity (GSK3B (human); compound 1.0 µM) of 63%. The residual activity (GSK3B (human); compound 10.0 µM) was 14%, the residual activity (INSR (human); compound 1.0 µM) was 100% and the residual activity (INSR (human); compound 10.0 µM) was 91%. It also gave a residual activity (INSRR (human); compound 1.0 µM) of 67%, a residual activity (INSRR (human); compound 10.0 µM) of 27% and a residual activity (IRAK4 (human); compound 1.0 µM) of 90%. For the same compound, the residual activity (IRAK4 (human); compound 10.0 µM) was 88%, the residual activity (LCK (mouse); compound 1.0 µM) was 100% and the residual activity (LCK (mouse); compound 10.0 µM) was 98%. It also gave a residual activity (MAP2K1 (human); compound 1.0 µM) of 87%, a residual activity (MAP2K1 (human); compound 10.0 µM) of 31% and a residual activity (MAP2K6 (human); compound 1.0 µM) of 94%. The residual activity (MAP2K6 (human); compound 10.0 µM) was 100%, the residual activity (MAP3K9 (human); compound 1.0 µM) was 126% and the residual activity (MAP3K9 (human); compound 10.0 µM) was 91%. For the same compound, the residual activity (MAPK10 (human); compound 1.0 µM) was 85%, the residual activity (MAPK10 (human); compound 10.0 µM) was 96% and the residual activity (MAPK11 (human); compound 1.0 µM) was 102%. The residual activity (MAPK11 (human); compound 10.0 µM) was 100%, the residual activity (MAPK13 (human); compound 1.0 µM) was 113% and the residual activity (MAPK13 (human); compound 10.0 µM) was 77%. For the same compound, the residual activity (MARK1 (human); compound 1.0 µM) was 99%, the residual activity (MARK1 (human); compound 10.0 µM) was 72% and the residual activity (MARK2 (human); compound 1.0 µM) was 83%. It also gave a residual activity (MARK2 (human); compound 10.0 µM) of 84%, a residual activity (MKNK1 (human); compound 1.0 µM) of 89% and a residual activity (MKNK1 (human); compound 10.0 µM) of 55%. The residual activity (MYLK (human); compound 1.0 µM) was 94%, the residual activity (MYLK (human); compound 10.0 µM) was 42% and the residual activity (NEK2 (human); compound 1.0 µM) was 108%. It also gave a residual activity (NEK2 (human); compound 10.0 µM) of 113%, a residual activity (NEK6 (human); compound 1.0 µM) of 93% and a residual activity (NEK6 (human); compound 10.0 µM) of 83%. The residual activity ([3]; compound 1.0 µM) was 109%, the residual activity ([3]; compound 10.0 µM) was 101% and the residual activity (PHKG1 (human); compound 1.0 µM) was 102%. For the same compound, the residual activity (PHKG1 (human); compound 10.0 µM) was 82%, the residual activity (PIM2 (human); compound 1.0 µM) was 87% and the residual activity (PIM2 (human); compound 10.0 µM) was 36%. For the same compound, the residual activity (PIM3 (human); compound 1.0 µM) was 74%, the residual activity (PIM3 (human); compound 10.0 µM) was 31% and the residual activity (PKN2 (human); compound 1.0 µM) was 98%. For the same compound, the residual activity (PKN2 (human); compound 10.0 µM) was 54%, the residual activity (ROCK2 (rat); compound 1.0 µM) was 90% and the residual activity (ROCK2 (rat); compound 10.0 µM) was 93%. For the same compound, the residual activity ([4]; compound 1.0 µM) was 98%, the residual activity ([4]; compound 10.0 µM) was 50% and the residual activity (SRPK1 (human); compound 1.0 µM) was 112%. For the same compound, the residual activity (SRPK1 (human); compound 10.0 µM) was 105%, the residual activity ([5]; compound 1.0 µM) was 85% and the residual activity ([5]; compound 10.0 µM) was 64%. For the same compound, the residual activity (SYK (human); compound 1.0 µM) was 114%, the residual activity (SYK (human); compound 10.0 µM) was 102% and the residual activity (TBK1 (human); compound 1.0 µM) was 109%. It also gave a residual activity (TBK1 (human); compound 10.0 µM) of 63%, a residual activity (TTK (human); compound 1.0 µM) of 83% and a residual activity (TTK (human); compound 10.0 µM) of 63%.
